Active and inactive are the calls of the source. No cut-off for these calls is given here.
What was measured:
Assay type in all cases: functional, cell-based
[1] = test system: 4T1; assay: Antiproliferative activity against mouse 4T1 cells assessed as reduction in cell viability after 72 hrs by MTT assay; settings: 4T1, 72 h
[2] = test system: MCF7; assay: Antiproliferative activity against human MCF7 cells assessed as reduction in cell viability after 72 hrs by MTT assay; settings: MCF7, 72 h
[3] = test system: MIA PaCa-2; assay: Antiproliferative activity against human MIAPaCa2 cells assessed as reduction in cell viability after 72 hrs by MTT assay; settings: MIA PaCa-2, 72 h
[4] = test system: WiDr; assay: Antiproliferative activity against human WiDr cells assessed as reduction in cell viability after 72 hrs by MTT assay
[5] = test system: WiDr; assay: Induction of mitochondrial morphological changes in human WiDr cells assessed as fragmentation of mitochondrial networks at 100 uM after 24 hrs by mitotracker Red-CMXROS dye based epifluorescent microscopic analysis
[6] = test system: 4T1; assay: Induction of mitochondrial morphological changes in mouse 4T1 cells assessed as fragmentation of mitochondrial networks at 100 uM after 24 hrs by mitotracker Red-CMXROS dye based epifluorescent microscopic analysis
[7] = test system: 4T1; assay: Induction of mitochondrial stress in mouse 4T1 cells assessed as acute change in oxygen consumption rate by measuring reduction in ATP production at 100 uM in presence of oligomycin/FCCP/antimycin/rotenone by seahorse XFe96 analyser based assay
[8] = test system: 4T1; assay: Induction of mitochondrial membrane damage in mouse 4T1 cells assessed as increase in proton leak at 50 to 100 uM in presence of oligomycin/FCCP/antimycin/rotenone by seahorse XFe96 analyser based assay
[9] = test system: WiDr; assay: Induction of mitochondrial stress in human WiDr cells assessed as acute change in oxygen consumption rate by measuring reduction in ATP production at 50 to 100 uM in presence of oligomycin/FCCP/antimycin/rotenone by seahorse XFe96 analyser based assay
[10] = test system: WiDr; assay: Induction of mitochondrial membrane damage in human WiDr cells assessed as increase in proton leak at 50 to 100 uM in presence of oligomycin/FCCP/antimycin/rotenone by seahorse XFe96 analyser based assay
[11] = test system: WiDr; assay: Induction of mitochondrial stress in human WiDr cells assessed as reduction in maximal respiration at 50 to 100 uM in presence of oligomycin/FCCP/antimycin/rotenone by seahorse XFe96 analyser based assay
[12] = test system: 4T1; assay: Induction of mitochondrial stress in mouse 4T1 cells assessed as reduction in maximal respiration at 100 uM in presence of oligomycin/FCCP/antimycin/rotenone by seahorse XFe96 analyser based assay
[13] = test system: WiDr; assay: Induction of mitochondrial stress in human WiDr cells assessed as effect on spare respiratory capacity at 50 to 100 uM in presence of oligomycin/FCCP/antimycin/rotenone by seahorse XFe96 analyser based assay
[14] = test system: 4T1; assay: Induction of mitochondrial stress in mouse 4T1 cells assessed as effect on spare respiratory capacity at 50 to 100 uM in presence of oligomycin/FCCP/antimycin/rotenone by seahorse XFe96 analyser based assay
[15] = test system: WiDr; assay: Induction of glycolytic stress in human WiDr cells assessed as increase in glycolysis at 50 to 100 uM in presence of glucose/oligomycin and 2-deoxyglucose by seahorse XFe96 analyser based assay
[16] = test system: 4T1; assay: Induction of glycolytic stress in mouse 4T1 cells assessed as increase in glycolysis at 50 to 100 uM in presence of glucose/oligomycin and 2-deoxyglucose by seahorse XFe96 analyser based assay
[17] = test system: WiDr; assay: Induction of glycolytic stress in human WiDr cells assessed as reduction in glycolytic capacity at 100 uM in presence of glucose/oligomycin and 2-deoxyglucose by seahorse XFe96 analyser based assay
[18] = test system: 4T1; assay: Induction of glycolytic stress in mouse 4T1 cells assessed as reduction in glycolytic capacity at 50 to 100 uM in presence of glucose/oligomycin and 2-deoxyglucose by seahorse XFe96 analyser based assay
[19] = test system: WiDr; assay: Induction of glycolytic stress in human WiDr cells assessed as reduction in glycolytic reverse at 50 to 100 uM in presence of glucose/oligomycin and 2-deoxyglucose by seahorse XFe96 analyser based assay
[20] = test system: 4T1; assay: Induction of glycolytic stress in mouse 4T1 cells assessed as reduction in glycolytic reverse at 50 to 100 uM in presence of glucose/oligomycin and 2-deoxyglucose by seahorse XFe96 analyser based assay

SMILES	IC50 [1]	IC50 [2]	IC50 [3]	IC50 [4]	Activity [5]	Activity [6]	Activity [7]	Activity [8]	Activity [9]	Activity [10]	Activity [11]	Activity [12]	Activity [13]	Activity [14]	Activity [15]	Activity [16]	Activity [17]	Activity [18]	Activity [19]	Activity [20]
COc1ccc([P+](CCC(=O)Nc2ccc3c(c2)B(O)OC3)(c2ccc(OC)cc2)c2ccc(OC)cc2)cc1	> 100 µM	> 100 µM	> 100 µM	> 100 µM	–	–	–	–	–	–	–	–	–	–	–	–	–	–	–	–
O=C(CCBr)Nc1ccc2c(c1)B(O)OC2	> 100 µM	> 100 µM	> 100 µM	> 100 µM	–	–	–	–	–	–	–	–	–	–	–	–	–	–	–	–
O=C(CC[P+](c1ccccc1)(c1ccccc1)c1ccccc1)Nc1ccc2c(c1)B(O)OC2	> 100 µM	> 100 µM	> 100 µM	> 100 µM	inactive	inactive	–	–	–	–	–	–	–	–	–	–	–	–	–	–

The next lines start with results.

IC50 [1]	IC50 [2]	IC50 [3]	SMILES	IC50 [4]	Activity [5]	Activity [6]	Activity [7]	Activity [8]	Activity [9]	Activity [10]	Activity [11]	Activity [12]	Activity [13]	Activity [14]	Activity [15]	Activity [16]	Activity [17]	Activity [18]	Activity [19]	Activity [20]
> 100 µM	> 100 µM	> 100 µM	O=C(CC[P+](c1ccc(F)cc1)(c1ccc(F)cc1)c1ccc(F)cc1)Nc1ccc2c(c1)B(O)OC2	> 100 µM	inactive	inactive	–	–	–	–	–	–	–	–	–	–	–	–	–	–
> 100 µM	> 100 µM	> 100 µM	O=C(CC[P+](c1ccccc1)(c1ccccc1)C1CCCCC1)Nc1ccc2c(c1)B(O)OC2	> 100 µM	–	–	–	–	–	–	–	–	–	–	–	–	–	–	–	–
50 µM	46 µM	44 µM	Cc1ccc([P+](CCC(=O)Nc2ccc3c(c2)B(O)OC3)(c2ccc(C)cc2)c2ccc(C)cc2)cc1	24 µM	Active	Active	Active	Active	Active	Active	Active	inactive	inactive	inactive	Active	Active	Active	inactive	Active	Active

— ChEMBL document CHEMBL4622913, “Synthesis and biological evaluation of arylphosphonium-benzoxaborole conjugates as novel anticancer agents” (Bioorg Med Chem Lett, 2020)
